According to patent US20130315843A1, “COMPOSITION FOR REDUCTION OF TRPA1 AND TRPV1 SENSATIONS” (priority 2012, published 2013):

Assay: Headspace GC reduction of 1-propanethiol by protectant (Michael Acceptor) compounds
Settings: for % Thiol Reduction: 0.1% sodium lauryl sulfate, 1% test compound, headspace; for Percent Thiol Reduction vs. Control: 0.1% SLS
[1] = 1 ppm 1-propanethiol, 0.01% test compound
[2] = 1 ppm 1-propanethiol, 0.05% test compound
[3] = 10 ppm 1-propanethiol, 0.01% test compound
[4] = 10 ppm 1-propanethiol, 0.05% test compound

Description: For EXAMPLES 11 and 12 a 0.1% sodium lauryl sulfate (SLS) aqueous solution was prepared to contain either 1 ppm or 10 ppm of 1-propanethiol. SLS solution was added to the sample and control solutions to assist in solubilization of the more hydrophobic compounds. Control solutions contained surfactant and 1-propanethiol, while sample solutions contained these components plus a protectant compound added at either 0.01% or 0.05%. 100 μL aliquots of control or test solutions were aliquotted into a 22 mL headspace vial, vortexed for 30 seconds, and incubated for 30 minutes at 60 C in an oven. After that period, 1 mL of head space was sampled and injected into an Agilent 7890 gas chromatograph equipped with a sulfur chemiluminescence detector (GC-SCD). Peak areas of the 1-propanethiol control sample (no protectant compound added) were established by triplicate injection of the control sample. The area of the propanethiol peak produced from samples containing selected protectant molecules were then determined and ratioed to the 1-propanethiol control peak area, subtracted from 1, and multiplied by 100 to calculate percent reduction of the thiol peak, thus indicating the effectiveness of each protectant at reducing the level of thiol.
The samples in TABLE 17 were prepared by combining 1 ppm 1-propanethiol with 0.1% sodium lauryl sulfate with 1% of the test compounds. The volatile sulfurs were measured with headspace GC/MS using a SPEME column to capture the volatile sulfur.
The samples in TABLE 18 were prepared by combining either 1 or 10 ppm 1-propanethiol with 0.1% sodium lauryl sulfate with either 0.01% or 0.05% of the test compounds.

Structure (SMILES) | % Thiol Reduction (1 ppm 1-propanethiol) | Percent Thiol Reduction vs. Control [1] | Percent Thiol Reduction vs. Control [2] | Percent Thiol Reduction vs. Control [3] | Percent Thiol Reduction vs. Control [4] | thiol reduction, comparison in words (10 ppm 1-propanethiol, compound 0.01%)
CC(=O)c1ccc[nH]1 [Acetylpyrrole] | 37.3% | – | – | – | – | –
O=C/C=C/c1ccccc1 [Cinnamic aldehyde] | – | 36.8% | 52.4% | −10.0% | −5.7% | –
CCc1occc(=O)c1O [Ethyl maltol] | −17.2% | – | – | – | – | –
CC1=CC(=O)CC(C)(C)C1 [Isophorone] | 43.1% | – | – | – | – | –
CC/C=C\CC1=C(C)CCC1=O [cis-Jasmone] | – | 36.1% | 55.3% | 25.4% | 8.2% | –
C/C=C/C(=O)C1C(C)C=CCC1(C)C (stereo not shown) [delta damascone] | – | – | – | – | – | higher activity at its lower concentration (0.01%) than any of the other michael acceptor's
C/C=C/C(=O)C1C(C)C=CCC1(C)C (stereo not shown) [delta-Damascone] | – | 77.7% | 82.3% | 81.0% | 81.2% | –
